Columns and labels:
[1] = Lung tissue and plasma concentration ratios; format: in vivo, CD-1 mouse; conditions: mice, single oral dose 5 mg/kg, dosed together with dasatinib, all time points
Procedure: CD-1 mouse (approximate weight 30 g, N=3) were dosed by oral gavage at 10 mL/kg. Blood samples were collected into tubes containing EDTA as the anticoagulant at 1, 2, 4, 10 h post-dosing for Compound X, and predose, 1, 2, 3, 8, 10 and 24 h post-dosing for Compound XI. The plasma samples were prepared by centrifugation. Lung samples were also collected at each of the above time points. The lung samples were homogenated in 4× distilled water (v/w). The plasma samples and the homogenated lung tissue samples were mixed with 3× volumes of acetonitrile containing 100 nM reserpine as the internal standard, and centrifuged at 4000 RPM for 15 min. The supernatants were injected for LC/MS analysis which were carried out on a AB Sciex 4000 Q Trap LC/MS/MS system coupled with Shimadzu Prominence UFLCXR 20 series (including a CBM-20A controller, two LC-20ADXR solvent delivery units, SIL-20AC HT autosampler, CTO-20A column oven, and a SPD-20A UV detector). The samples were separated on a Phenomenex Columbus column (C18, 4 μm, 50×2 mm) eluted with two solvent systems: 2 mM ammonium acetate in water containing 0.1% formic acid (A) and methanol (B) at a linear gradient starting at 25%. Electrospray ionization in positive mode was used to acquire LC/MS/MS data.

[2] = Metabolic stability in human liver microsomes; format: in vitro ADME; conditions: human liver microsomes 0.5 mg/mL, NADPH and UDPGA, 37° C., read-out: In vitro t1/2
Procedure: FIG. 1. Metabolic stability of compounds in human liver microsomal incubations. […] Concentrations at specified times were determined by LC-MS/MS.
The incubation reactions at various time points were quenched by adding 2× volumes of acetonitrile containing 100 nM reserpine. The quenched incubation samples were centrifuged at 4000 RPM for 10 min, and the supernatants injected for LC/MS/MS analysis. LC/MS/MS analysis was carried out on a AB Sciex 4000 Q Trap LC/MS/MS system coupled with Shimadzu Prominence UFLCXR 20 series (including a CBM-20A controller, two LC-20ADXR solvent delivery units, SIL-20AC HT autosampler, CTO-20A column oven, and a SPD-20A UV detector).

ratio of lung tissue concentration to plasma concentration, compared to dasatinib [1]	half-life at 1 μM [2]	SMILES
significantly lower ratios	–	Cc1nc(Nc2ncc(C(=O)Nc3c(C)cccc3Cl)s2)cc(N2CC[C@H](O)C2)n1 [Compound X, N-(2-chloro-6-methylphenyl)-2-[[2-methyl-6-((S)-3-hydroxypyrrolidin-1-yl)pyrimidin-4-yl]amino]thiazole-5-carboxamide]
–	4.68 h	[2H]c1cc(C)c(NC(=O)c2cnc(Nc3cc(N4CCCCC4)nc(C)n3)s2)c(Cl)c1 [Compound I, N-(2-chloro-4-deuterio-6-methyl-phenyl)-2-[[2-methyl-6-(1-piperidyl)pyrimidin-4-yl]amino]thiazole-5-carboxamide]
significantly lower ratios	–	Cc1nc(Nc2ncc(C(=O)Nc3c(C)cccc3Cl)s2)cc(N2CC[C@@H](O)C2)n1 [Compound XI, N-(2-chloro-6-methylphenyl)-2-[[2-methyl-6-((R)-3-hydroxypyrrolidin-1-yl)pyrimidin-4-yl]amino]thiazole-5-carboxamide]
